US20130225575A1, “METHODS FOR TREATING NEUROLOGICAL CONDITIONS” (AFRAXIS, INC., priority 2010, published 2013)

How the values were obtained:
Format in all cases: biochemical
[1] = molecular target: PAK3 (Homo sapiens, UniProt O75914); assay: Z'Lyte fluorescence-based (FRET) kinase assay, PAK3; conditions: ATP at Km apparent (100 μM ATP); 1 hr room temperature
Protocol: (§1) A fluorescence-based assay format is used to determine […] values of test compounds in vitro. Purified PAK kinase is incubated with ATP, and a test compound at various concentrations and a substrate peptide containing two fluorophores. In a second step, the reaction mix is incubated with a site-specific protease that cleaves non-phosphorylated but not phosphorylated substrate peptide, disrupting the FRET signal generated by the two fluorophores in the cleaved peptide (Z'Lyte™ Kinase assay platform; Life Technologies).
(§2) Reagents: 50 mM HEPES, pH 7.5; 0.01% BRIJ-35; 10 mM MgCl2; 1 mM EGTA, 2 uM substrate peptide Ser/Thr20 (proprietary Life Technologies Sequence), PAK enzyme [2.42-30.8 ng for PAK1, 0.29-6 ng for PAK2, 1.5-20 ng for PAK3 and 0.1-0.86 ng for PAK4; actual enzyme amounts depend on lot activity of the enzyme preparation]
(§3) Test compounds are dissolved in DMSO at various concentrations; the final DMSO concentration in the assay reaction is 1%.
(§4) ATP concentration at Km apparent is used in the assay [50 ? M ATP for PAK1 assay, 75 ? M ATP for PAK2 assay, 100 μM ATP for PAK3 assay, 5 μM ATP for PAK4 assay] in a total assay volume of 10 μl. […]
(§5) Plates are analyzed in a standard fluorescence plate reader (Tecan or equivalent) using an excitation wavelength of 400 nm and emission wavelengths of 445 nm and 520 nm. Inhibition of kinase reaction is determined by […]

[2] = molecular target: PAK2 (Homo sapiens, UniProt Q13177); assay: Z'Lyte fluorescence-based (FRET) kinase assay, PAK2; conditions: ATP at Km apparent; 1 hr room temperature
Protocol: as §1, §2, §3, §4, §5

[3] = molecular target: T1, PAK1 (Homo sapiens, UniProt Q13153); assay: Z'Lyte fluorescence-based (FRET) kinase assay, PAK1; conditions: ATP at Km apparent; 1 hr room temperature
T1 construct: Purified PAK kinase is incubated with ATP
Protocol: as §1, §2, §3, §4, §5

[4] = molecular target: T2, PAK4 (Homo sapiens, UniProt O96013); assay: Z'Lyte fluorescence-based (FRET) kinase assay, PAK4; conditions: ATP at Km apparent (5 μM ATP); 1 hr room temperature
T2 construct: Purified PAK kinase is incubated with ATP
Protocol: as §1, §2, §3, §4, §5

T1 sequence (Q13153 whole entry): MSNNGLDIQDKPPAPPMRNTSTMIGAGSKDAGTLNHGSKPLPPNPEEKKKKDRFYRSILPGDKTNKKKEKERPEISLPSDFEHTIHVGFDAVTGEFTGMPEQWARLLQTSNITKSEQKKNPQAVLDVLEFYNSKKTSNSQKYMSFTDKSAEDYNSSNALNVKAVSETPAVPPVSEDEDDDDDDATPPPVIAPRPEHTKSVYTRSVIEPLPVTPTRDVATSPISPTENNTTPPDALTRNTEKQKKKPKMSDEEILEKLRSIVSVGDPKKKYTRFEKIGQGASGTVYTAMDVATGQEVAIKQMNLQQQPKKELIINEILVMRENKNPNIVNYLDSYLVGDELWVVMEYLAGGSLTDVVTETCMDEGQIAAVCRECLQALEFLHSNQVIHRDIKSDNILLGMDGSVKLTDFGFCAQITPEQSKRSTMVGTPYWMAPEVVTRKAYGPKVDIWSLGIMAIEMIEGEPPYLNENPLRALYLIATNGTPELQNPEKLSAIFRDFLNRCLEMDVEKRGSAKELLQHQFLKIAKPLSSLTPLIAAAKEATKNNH
Sequence of PAK2 (Q13177 whole entry): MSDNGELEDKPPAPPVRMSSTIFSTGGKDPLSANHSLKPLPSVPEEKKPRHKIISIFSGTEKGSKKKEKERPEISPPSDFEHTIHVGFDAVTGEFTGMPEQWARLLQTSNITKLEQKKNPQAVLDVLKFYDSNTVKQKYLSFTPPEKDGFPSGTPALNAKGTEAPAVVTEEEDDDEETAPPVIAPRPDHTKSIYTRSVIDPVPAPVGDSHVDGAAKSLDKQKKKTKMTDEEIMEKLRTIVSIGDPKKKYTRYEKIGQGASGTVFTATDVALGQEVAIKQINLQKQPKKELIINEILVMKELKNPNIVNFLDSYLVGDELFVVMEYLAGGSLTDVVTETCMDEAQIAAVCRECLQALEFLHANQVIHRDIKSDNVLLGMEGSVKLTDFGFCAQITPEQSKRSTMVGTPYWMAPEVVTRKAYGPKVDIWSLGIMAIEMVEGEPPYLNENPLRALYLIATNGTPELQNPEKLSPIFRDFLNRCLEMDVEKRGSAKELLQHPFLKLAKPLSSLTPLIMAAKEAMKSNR
T2 sequence (O96013 whole entry): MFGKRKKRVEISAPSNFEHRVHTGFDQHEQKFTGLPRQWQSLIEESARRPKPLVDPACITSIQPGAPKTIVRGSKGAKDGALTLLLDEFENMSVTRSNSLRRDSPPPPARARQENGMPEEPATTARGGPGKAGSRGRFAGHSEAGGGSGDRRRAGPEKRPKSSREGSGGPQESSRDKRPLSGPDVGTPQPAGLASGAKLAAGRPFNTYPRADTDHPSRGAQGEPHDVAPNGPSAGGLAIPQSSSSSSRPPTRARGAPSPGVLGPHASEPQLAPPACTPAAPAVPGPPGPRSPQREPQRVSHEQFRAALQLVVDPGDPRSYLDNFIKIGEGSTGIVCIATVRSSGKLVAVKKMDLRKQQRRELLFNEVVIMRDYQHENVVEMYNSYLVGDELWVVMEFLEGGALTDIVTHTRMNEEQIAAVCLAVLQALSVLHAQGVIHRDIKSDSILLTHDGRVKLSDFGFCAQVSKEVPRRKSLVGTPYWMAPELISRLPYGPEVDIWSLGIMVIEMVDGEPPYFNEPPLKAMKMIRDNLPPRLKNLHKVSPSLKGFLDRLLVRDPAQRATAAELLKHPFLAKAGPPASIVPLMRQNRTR
Sequence of PAK3 (O75914 whole entry): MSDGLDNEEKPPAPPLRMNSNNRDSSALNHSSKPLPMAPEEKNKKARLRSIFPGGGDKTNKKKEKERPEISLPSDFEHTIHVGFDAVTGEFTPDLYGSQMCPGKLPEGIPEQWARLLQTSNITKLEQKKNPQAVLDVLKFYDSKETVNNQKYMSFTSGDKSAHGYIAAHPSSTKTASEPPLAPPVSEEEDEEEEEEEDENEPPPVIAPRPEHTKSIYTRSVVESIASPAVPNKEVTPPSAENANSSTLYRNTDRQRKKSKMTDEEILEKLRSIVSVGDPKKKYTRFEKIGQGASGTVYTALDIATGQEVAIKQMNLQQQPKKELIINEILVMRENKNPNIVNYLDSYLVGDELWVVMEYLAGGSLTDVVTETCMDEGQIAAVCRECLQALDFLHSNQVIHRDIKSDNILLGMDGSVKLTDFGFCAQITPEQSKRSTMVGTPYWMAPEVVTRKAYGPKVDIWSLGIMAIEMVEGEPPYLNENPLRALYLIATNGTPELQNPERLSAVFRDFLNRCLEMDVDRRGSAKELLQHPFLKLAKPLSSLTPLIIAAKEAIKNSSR

IC50 [1] [nM] | IC50 [2] [nM] | IC50 [3] [nM] | IC50 [4] [nM] | Structure (SMILES)
< 1000 | < 1000 | < 1000 | < 1000 | CN1CCN(c2ccc(Nc3ncc4ccc(=O)n(Cc5c(O)cccc5F)c4n3)cc2)CC1 [compound 105]
< 1000 | < 1000 | < 1000 | < 1000 | CN1CCN(c2ccc(Nc3ncc4ccc(=O)n(Cc5c(O)cccc5Br)c4n3)cc2)CC1 [compound 123]
